# Data taken from patent publication US20040248887A1, “Inhibitors of cathepsin S” (IRM LLC, priority 2003, published 2004).
# Biological target: Cathepsin S (Homo sapiens, UniProt P25774)
# Assay: Cathepsin S inhibition, fluorogenic peptide substrate kinetic assay
# Format: biochemical
# Details: Table II; Cathepsin S inhibition constant, pH5.5; read-out: Ki Cat. S
# In short: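 Ki values derive from apparent constants fitted to progress curves, corrected for competition with substrate via [S] and Km. Kinetics were monitored at 380 nm excitation/450 nm emission, after substrate addition (Ac-HPVK-ACC, 50 μM final) to start the reaction.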
# Cathepsin S, sequence (P25774 115-331, species assumed): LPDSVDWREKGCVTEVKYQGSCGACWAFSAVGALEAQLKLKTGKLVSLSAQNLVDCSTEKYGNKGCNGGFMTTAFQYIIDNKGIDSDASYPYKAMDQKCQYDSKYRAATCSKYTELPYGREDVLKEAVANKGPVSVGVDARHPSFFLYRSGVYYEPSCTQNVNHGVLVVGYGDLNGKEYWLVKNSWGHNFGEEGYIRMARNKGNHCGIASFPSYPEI
row,Ki [nM],Compound
1,< 100,"C[C@@H](CNc1ccc2c(c1)OCO2)NC(=O)[C@H](CC1CCCCC1)NC(=O)c1ccc(-c2cccc(F)c2)o1 [Compound 85, 5-(3-Fluoro-phenyl)-furan-2-carboxylic acid {1-(S)-[2-(benzo[1,3]dioxol-5-ylamino)-1-(S)-methyl-ethylcarbamoyl]-2-cyclohexyl-ethyl}-amide]"
2,< 100,"COc1cccc(C(=O)N[C@@H](CC(C)(C)C)C(=O)N[C@@H](CC(=O)OC(C)(C)C)CN2CCc3cc(F)ccc32)c1 [Compound 160, 4-(5-Fluoro-2,3-dihydro-indol-1-yl)-3-(S)-[2-(S)-(3-methoxy-benzoylamino)-4,4-dimethyl-pentanoylamino]-butyric acid tert-butyl ester]"
3,< 100,"COc1cc(C)c(NC[C@H](C)NC(=O)[C@H](CC2CCCCC2)NC(=O)c2ccc(-c3cccc(F)c3)o2)c(C)c1 [Compound 114, 5-(3-Fluoro-phenyl)-furan-2-carboxylic acid {2-cyclohexyl-1-(S)-[2-(4-methoxy-2,6-dimethyl-phenylamino)-1-(S)-methyl-ethylcarbamoyl]-ethyl}-amide]"
4,< 100,"Cc1occ(C(F)(F)F)c1S(=O)(=O)N[C@@H](CC1CCCCC1)C(=O)N[C@@H](C)CN1CCc2cc(F)ccc21 [Compound 253, (S,S)-3-Cyclohexyl-N-[2-(5-fluoro-2,3-dihydro-indol-1-yl)-1-methyl-ethyl]-2-(2-methyl-4-trifluoromethyl-furan-3-sulfonylamino)-propionamide]"
5,< 100,"C[C@@H](CNc1ccc(OC(F)(F)F)cc1)NC(=O)[C@H](CC1CCCC1)NC(=O)O[C@H]1CCOC1 [Compound 192, (S,S)-{2-Cyclopentyl-1-[1-methyl-2-(4-trifluoromethoxy-phenylamino)-ethylcarbamoyl]-ethyl}-carbamic acid tetrahydrofuran-3-(S)-yl ester]"
6,< 100,"O=C(NCCN1CCc2cc(F)ccc21)[C@H](CC1CCCCC1)NS(=O)(=O)c1ccc(Oc2ccccc2)cc1 [Compound 226, (S)-3-Cyclohexyl-N-[2-(5-fluoro-2,3-dihydro-indol-1-yl)-ethyl]-2-(4-phenoxy-benzenesulfonylamino)-propionamide]"
7,< 1000,"CC(C)(C)C[C@H](NC(=O)OCc1ccccc1)C(=O)N[C@@H](CC(=O)O)CN1CCc2cc(F)ccc21 [Compound 159, 3-(S)-(2-(S)-Benzyloxycarbonylamino-4,4-dimethyl-pentanoylamino)-4-(5-fluoro-2,3-dihydro-indol-1-yl)-butyric acid]"
8,< 100,"C[C@@H](CNc1ccc(OC(F)(F)F)cc1)NC(=O)[C@H](CC1CCCCC1)NC(=O)O[C@@H]1CCOC1 [Compound 188, {2-Cyclohexyl-1-(S)-[1-(S)-methyl-2-(4-trifluoromethoxy-phenylamino)-ethylcarbamoyl]-ethyl}-carbamic acid tetrahydrofuran-3-(R)-yl ester]"
9,< 10000,"C[C@@H](CNc1ccc(OC(F)(F)F)cc1)NC(=O)[C@H](CC(C)(C)C)NC(=O)[C@H]1CCCO1 [Compound 268, Tetrahydrofuran-2-(R)-carboxylic acid {3,3-dimethyl-1-(S)-[1-(S)-methyl-2-(4-trifluoromethoxy-phenylamino)-ethylcarbamoyl]-butyl}-amide]"
10,< 100,"C[C@@H](CNc1c(F)cccc1F)NC(=O)[C@H](CC1CCCCC1)NC(=O)c1ccc(-c2cccc(F)c2)o1 [Compound 92, 5-(3-Fluoro-phenyl)-furan-2-carboxylic acid {2-cyclohexyl-1-(S)-[2-(2,6-difluoro-phenylamino)-1-(S)-methyl-ethylcarbamoyl]-ethyl}-amide]"
11,< 1000,"O=C(N[C@@H](Cc1cccc(Cl)c1)C(=O)NCCN1CCc2cc(F)ccc21)c1ccc(-c2cccc(C(F)(F)F)c2)o1 [Compound 196, N-((S)-1-(2-(5-fluoroindolin-1-yl)ethylcarbamoyl)-2-(3-chlorophenyl)ethyl)-5-(3-(trifluoromethyl)phenyl)furan-2-carboxamide]"
